The text below walks through data of patent US6387934B1, “2-Cyano-3,5-dihydroxyhex-2-enecarboxamide derivatives” (Aventis Pharma Deutschland GmbH, priority 1996, dated 2002).

Series [1] has as its system IL-1-induced chondrocytic chondrolysis. Briefly: Modulation of the IL-1-induced chondrocytic chondrolysis (chondrolysis compensation). It counts as cell-based, bulls. The settings on record: stimulation factor = proteoglycan content with active compound / IL-1-treated control; interleukin-1 for 8 days, 35S-sulfate incorporation 24 hours; factor >1 = stimulation. Here is the method:
(§1) Cartilage cells can maintain their characteristic cartilage matrix metabolism ex vivo in suitable cell or tissue culture, i.e. the controlled synthesis and degradation of the matrix macromolecules, over a period of several weeks to months. These processes can be chemically influenced. […] In both assays, the stimulating action of the test substance is expressed by a stimulation factor which is calculated from the quotient of the specific proteoglycan content under the active compound condition divided by the proteoglycan content under the control condition. In Experiment A, the control condition is the untreated control group and in experimental procedure B this is the interleukin-1 (IL-1)-treated control group. A factor=1 can thus identify no action, a factor of >1 points to a stimulation and a factor of <1 to an inhibitory action.
B) Modulation of the IL-1-induced Chondrocytic Chondrolysis (Chondrolysis Compensation)
Cell preparation was carried out as described under A), if cartilage tissue explants are used these are added directly to the enriched culture medium described above after stamping out cartilage disks of 4 mm diameter and a depth which includes the entire cartilage layer. After adaptation for 5 days, interleukin-1 is added to the medium, 8 units/well for the cell culture, 20 units/well for the tissue culture, and, over the treatment period of 8 days, likewise added again every second day on changing the medium. At the end of the experiments, 1 μCi of Na2^35SO4/well is added and the mixture is incubated for 24 hours. After removing the supernatant, the remaining gels or explants are broken down in the microtiter plates by repeated deepfreezing and thawing and extracted with 8 M guanidine hydrochloride. After centrifugation, the supernatant is separated on a PD10 Sephadex column into free and incorporated sulfate and the radioactivity of the samples, which is a measure of the amount of proteoglycan newly formed, is determined in a β counter.

The subject of series [2] is chondrocytic proteoglycan metabolism. Description: Modulation of the chondrocytic proteoglycan metabolism (PG stimulation). Type of series: cell-based, bulls. Conditions: stimulation factor = proteoglycan content with active compound / untreated control, 10 μm test substance, 8 days, chondrocytes in agarose, Alcian Blue extinction at 610 nm, factor >1 = stimulation; for fold induction at 10 µM: Chondrocyte, 192 h. The method, then:
as §1
A) Modulation of the chondrocytic proteoglycan metabolism (PG stimulation)
Cartilage samples are taken under sterile conditions from fetlock joints of freshly slaughtered bulls, incubated with 1% strength pronase (Boehringer) solution in Ham's F12 medium (Serva) at 37° C. for 1 hour, and the enzyme solution is replaced by a 0.025% strength collagenase type A (Worthington) solution in medium and incubated overnight. After filtering through a 50 μm nylon filter, centrifugation, resuspension and vitality testing, a cell suspension of 4×10^6 cells/ml of medium, enriched with 20% fetal calf serum, is prepared and mixed at approximately 38° C. with 2% strength low-melting agarose (Seplaque) in the ratio 1:1 and 0.1 ml of this is pipetted into each well of a 24 well microtiter plate. After gelling, the samples are covered with a layer of 0.5 ml/well of medium, which is enriched with 5% serum, 25 μm/ml of ascorbic acid, and in groups of up to 6-8 wells with 10 μm of the test substance. The medium in a constant composition is renewed every second day for a treatment period of 8 days. At the end of the treatment, washing is carried out with medium, 1 ml of a buffered (pH 5.6) 1% strength Alcian Blue (Sigma) solution, enriched with 25% strength glutaraldehyde in the ratio 7:1, per well is added and the mixture is incubated for 48 hours. After washing and differentiating with 3% strength acetic acid, dehydration is carried out up to 70% strength ethanol content by means of the rising alcohol series, and then the bound dye is extracted at 4° C. for 24 hours using 8 M guanidine hydrochloride. The stoichiometric binding of the Alcian Blue to the chondroitin sulfate side chains of the proteoglycans allows a quantification of the enriched matrix via the determination of the extinction of the dye solution at 610 nm.

Structures can show the parent of a compound that is named as a salt.

Turning to `C[C@@H](O)C/C(O)=C(\C#N)C(=O)Nc1ccc(C(F)(F)F)cc1` (as salt: salt) [Example 10a, N-(4-Trifluoromethylphenyl)-2-cyano-3,5-dihydroxyhex-2-enecarboxamide Lysinium Salt, R Isomer], the melting point (commonly the temperature, or range, at which the solid turns liquid) is 156 °C. The same measure, in the same setting: in the case of `C[C@H](O)C/C(O)=C(\C#N)C(=O)Nc1ccc(C(F)(F)F)cc1` (as salt: salt) [Example 10b, N-(4-Trifluormethylphenyl)-2-cyano-3,5-dihydroxyhex-2-enecarboxamide Lysinium Salt, S-isomer] it was 157 °C; in that of `CC(O)C/C(O)=C(\C#N)C(=O)Nc1ccc(C(F)(F)F)cc1` (centres unmarked) (as salt: salt) [Example 37, N-(4-Trifluoromethylphenyl)-2-cyano-3,5-dihydroxyhex-2-carboxamide Lysinium Salt], 135 to 138 °C. As for `CC(C)(O)C/C(O)=C(\C#N)C(=O)Nc1ccccc1` [Example 1, N-(Phenyl)-2-cyano-3,5-dihydroxy-5-methylhex-2-enecarboxamide], the melting point was found to be 103 °C. The compound also yielded a Chondrolysis compensation in series [1] of 1.4. In turn, `CC(C)(O)C/C(O)=C(\C#N)C(=O)Nc1ccc(C(F)(F)F)cc1` [Example 2] displayed a melting point of 155 °C. This compound also showed a Chondrolysis compensation in series [1] of 1.9. For the same compound, in series [2], the fold induction (in general, the ratio of treated to control signal) at 10 µM was 1.8.

Compound `CC(C)(O)C/C(O)=C(\C#N)C(=O)NCc1ccccc1` [Example 3] returned a Chondrolysis compensation in series [1] of 1.5. In turn, `CC(C)(O)C/C(O)=C(\C#N)C(=O)NCCc1ccccc1` [Example 4] came in with a melting point of 81 °C. Besides, in series [1], the Chondrolysis compensation is listed as 1.5. In the same order, the values of `CC(O)C/C(O)=C(\C#N)C(=O)Nc1ccccc1` (centres unmarked) [Example 5] are 101 °C and 1.8.

Take `CC(O)C/C(O)=C(\C#N)C(=O)NCc1ccccc1` (centres unmarked) [Example 6]: the Chondrolysis compensation in series [1] amounted to 1.9. The compound `CC(O)C/C(O)=C(\C#N)C(=O)NCCc1ccccc1` (centres unmarked) [Example 7] displayed a melting point of 91 °C. For the same compound, the Chondrolysis compensation in series [1] was 1.3. Compound `CC(O)C/C(O)=C(\C#N)C(=O)Nc1ccc(Cl)cc1` (centres unmarked) [Example 8] displayed a melting point of 152 °C. In series [1], the Chondrolysis compensation stood at 2.1. For the compound `CC(O)C/C(O)=C(\C#N)C(=O)Nc1ccc(C(F)(F)F)cc1` (centres unmarked) [Example 9], the Chondrolysis compensation in series [1] is on record as 1.6. Moreover, the fold induction at 10 µM in series [2] is 1.5. Take `C[C@@H](O)C/C(O)=C(\C#N)C(=O)Nc1ccc(C(F)(F)F)cc1` [Example 10a, N-(4-Trifluoromethylphenyl)-2-cyano-3,5-dihydroxyhex-2-enecarboxamide Lysinium Salt, R Isomer]: the Chondrolysis compensation in series [1] came out at 1.1. `C[C@H](O)C/C(O)=C(\C#N)C(=O)Nc1ccc(C(F)(F)F)cc1` [Example 10b, N-(4-Trifluormethylphenyl)-2-cyano-3,5-dihydroxyhex-2-enecarboxamide Lysinium Salt, S-isomer]: the Chondrolysis compensation in series [1] is reported as 1.7.

The compound `Cc1ccc(C(O)C/C(O)=C(\C#N)C(=O)Nc2ccc(C(F)(F)F)cc2)cc1` (centres unmarked) [Example 11] returned a melting point of 170 to 171 °C. Still for that read-out and setting: in the case of `N#C/C(C(=O)Nc1ccc(Cl)cc1)=C(/O)CC(O)c1ccccc1` (centres unmarked) [Example 12] it was 178 °C.

`Cc1cc(NC(=O)/C(C#N)=C(\O)CC(O)c2ccccc2)ccc1Cl` (centres unmarked) [Example 13] gave a melting point of 165 °C. This compound gave a Chondrolysis compensation in series [1] of 1.1. Compound `Cc1ccc(C(O)C/C(O)=C(\C#N)C(=O)Nc2ccc(C(F)(F)F)cc2)cc1` (centres unmarked) [Example 14] showed a melting point of 180 °C. The compound `N#C/C(C(=O)Nc1ccc(C(F)(F)F)cc1)=C(/O)CC(O)c1ccc(OCc2ccccc2)cc1` (centres unmarked) [Example 15] returned a Chondrolysis compensation in series [1] of 1.2. With `N#C/C(C(=O)Nc1ccc(C(F)(F)F)cc1)=C(/O)CC(O)c1ccc(C#N)cc1` (centres unmarked) [Example 16], the melting point is 180 °C. In addition, the Chondrolysis compensation in series [1] was 1.1. In turn, `N#C/C(C(=O)Nc1ccc(C(F)(F)F)cc1)=C(/O)CC(O)c1ccc(C(F)(F)F)cc1` (centres unmarked) [Example 17] registered a melting point of 178 °C.

Regarding `COc1cc(C(O)C/C(O)=C(\C#N)C(=O)Nc2ccc(C(F)(F)F)cc2)cc(OC)c1OC` (centres unmarked) [Example 18], the melting point worked out at 154 °C. For the same compound, the Chondrolysis compensation in series [1] is recorded as 1.2. In series [2], this compound gave a fold induction at 10 µM of 1.1.

For `N#C/C(C(=O)Nc1ccc(C(F)(F)F)cc1)=C(/O)CC(O)c1ccc2c(c1)OCO2` (centres unmarked) [Example 19], in series [1], the Chondrolysis compensation came to 1.3. Further, the fold induction at 10 µM in series [2] came out at 1.1. `N#C/C(C(=O)Nc1ccc(C(F)(F)F)cc1)=C(/O)CC(O)c1ccncc1` (centres unmarked) [Example 20] showed a melting point of 203 °C.

The compound `N#C/C(C(=O)Nc1ccc(C(F)(F)F)cc1)=C(/O)CC(O)c1cccnc1` (centres unmarked) [Example 21] gave a melting point of 203 °C. In series [1], this compound gave a Chondrolysis compensation of 1.3. In series [2], this compound registered a fold induction at 10 µM of 1.2.

Turning to `N#C/C(C(=O)Nc1ccc(C(F)(F)F)cc1)=C(/O)CC(O)c1ccco1` (centres unmarked) [Example 22], in series [1], the Chondrolysis compensation is reported as 1.9. The compound further had a fold induction at 10 µM in series [2] of 1.1.

`N#C/C(C(=O)Nc1ccc(C(F)(F)F)cc1)=C(/O)CC(O)c1ccoc1` (centres unmarked) [Example 23] registered a melting point of 146 °C. The Chondrolysis compensation in series [1] is given as 1.9. Consider `N#C/C(C(=O)Nc1ccc(C(F)(F)F)cc1)=C(/O)CC(O)c1cccs1` (centres unmarked) [Example 24], for which the Chondrolysis compensation in series [1] is listed as 1.9. In turn, `N#C/C(C(=O)Nc1ccc(C(F)(F)F)cc1)=C(/O)CC(O)/C=C/c1ccccc1` (centres unmarked) [Example 25] showed a melting point of 168 to 172 °C. As for `N#C/C(C(=O)Nc1ccc(C(F)(F)F)cc1)=C(/O)CC(O)C#Cc1ccccc1` (centres unmarked) [Example 26], the melting point is 168 °C. In series [1], the Chondrolysis compensation is 1.9.

`C=C(C)C(O)C/C(O)=C(\C#N)C(=O)Nc1ccc(C(F)(F)F)cc1` (centres unmarked) [Example 28] yielded a fold induction at 10 µM in series [2] of 1.1. `CC(C)=CC(O)C/C(O)=C(\C#N)C(=O)Nc1ccc(C(F)(F)F)cc1` (centres unmarked) [Example 29]: the Chondrolysis compensation in series [1] worked out at 1.7. The compound also yielded a fold induction at 10 µM in series [2] of 1.1. `CC(C)=CCC/C(C)=C/C(O)C/C(O)=C(\C#N)C(=O)Nc1ccc(C(F)(F)F)cc1` (centres unmarked) [Example 30] registered a melting point of 114 to 116 °C. This compound yielded a Chondrolysis compensation in series [1] of 1.3.

Regarding `CCCCC(C)(O)C/C(O)=C(\C#N)C(=O)Nc1ccc(C(F)(F)F)cc1` (centres unmarked) [Example 31], in series [1], the Chondrolysis compensation came out at 1.6. With `CC(O)(C/C(O)=C(\C#N)C(=O)Nc1ccc(C(F)(F)F)cc1)C1CC1` (centres unmarked) [Example 32], in series [1], the Chondrolysis compensation is reported as 1.8. In series [2], this compound registered a fold induction at 10 µM of 1.1. With `N#C/C(C(=O)Nc1ccc(C(F)(F)F)cc1)=C(/O)CC(O)C1CC1` (centres unmarked) [Example 33], in series [1], the Chondrolysis compensation came to 1.9. `N#C/C(C(=O)Nc1ccc(C(F)(F)F)cc1)=C(/O)CC(=O)O` [Example 36] displayed a Chondrolysis compensation in series [1] of 1.8.

In series [1], `CC(O)C/C(O)=C(\C#N)C(=O)Nc1ccc(C(F)(F)F)cc1` (centres unmarked) [Example 37, N-(4-Trifluoromethylphenyl)-2-cyano-3,5-dihydroxyhex-2-carboxamide Lysinium Salt] yielded a Chondrolysis compensation of 1.9. For the same compound, the PG stimulation in series [2] turned out to be 1.1. `CC(C)(O)C/C(O)=C(\C#N)C(=O)Nc1ccc(C(F)(F)F)cc1` [Example 38] yielded a melting point of 145 to 148 °C. For the same compound, the Chondrolysis compensation in series [1] came out at 1.8.
